From ChEMBL document CHEMBL4414631 (J Med Chem, 2019)

Key:
[1] = target: Phosphatidylinositol 4,5-bisphosphate 3-kinase catalytic subunit beta isoform (Homo sapiens, UniProt P42338); test: Inhibition of PI3Kbeta (unknown origin) using biotin-PIP3 as substrate preincubated for 15 mins followed by substrate addition and measured after 60 mins by fluorescence polarization assay
[2] = Lipophilicity, logD of compound at pH 7.4 by HPLC-MS analysis; settings: buffer
[3] = target: T1, Phosphatidylinositol 4,5-bisphosphate 3-kinase catalytic subunit delta isoform (Homo sapiens, UniProt O00329)
T1 sequence (O00329 whole entry): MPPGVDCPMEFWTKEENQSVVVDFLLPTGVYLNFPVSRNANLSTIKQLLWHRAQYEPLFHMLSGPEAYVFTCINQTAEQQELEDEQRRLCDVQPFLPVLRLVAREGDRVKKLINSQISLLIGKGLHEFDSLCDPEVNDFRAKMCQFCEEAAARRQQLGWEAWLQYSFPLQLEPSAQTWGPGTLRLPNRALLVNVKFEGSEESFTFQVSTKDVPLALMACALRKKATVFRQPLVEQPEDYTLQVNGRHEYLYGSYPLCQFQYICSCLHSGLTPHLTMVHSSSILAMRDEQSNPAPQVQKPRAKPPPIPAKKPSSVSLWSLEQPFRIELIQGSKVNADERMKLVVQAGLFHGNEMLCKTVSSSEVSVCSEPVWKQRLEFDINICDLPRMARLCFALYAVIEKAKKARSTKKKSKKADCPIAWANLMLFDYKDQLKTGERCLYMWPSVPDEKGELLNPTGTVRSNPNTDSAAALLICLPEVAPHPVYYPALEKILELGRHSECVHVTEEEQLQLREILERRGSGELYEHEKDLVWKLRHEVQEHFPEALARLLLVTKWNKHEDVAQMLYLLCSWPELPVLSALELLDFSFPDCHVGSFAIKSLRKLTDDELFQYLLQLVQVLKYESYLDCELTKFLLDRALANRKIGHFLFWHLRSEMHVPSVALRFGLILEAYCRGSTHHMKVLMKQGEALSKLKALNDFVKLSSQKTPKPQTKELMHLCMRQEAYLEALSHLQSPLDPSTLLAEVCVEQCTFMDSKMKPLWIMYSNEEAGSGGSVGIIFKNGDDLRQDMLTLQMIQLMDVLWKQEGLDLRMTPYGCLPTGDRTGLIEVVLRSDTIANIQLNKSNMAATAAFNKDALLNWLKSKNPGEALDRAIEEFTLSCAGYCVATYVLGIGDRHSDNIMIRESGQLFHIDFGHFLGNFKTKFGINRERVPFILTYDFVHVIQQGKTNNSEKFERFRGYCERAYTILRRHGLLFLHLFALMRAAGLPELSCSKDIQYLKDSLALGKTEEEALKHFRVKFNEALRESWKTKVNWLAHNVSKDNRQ
Description: Inhibition of PI3Kdelta (unknown origin) using biotin-PIP3 as substrate preincubated for 15 mins followed by substrate addition and measured after 60 mins by fluorescence polarization assay

[4] = target: Phosphatidylinositol 4,5-bisphosphate 3-kinase catalytic subunit gamma isoform (Homo sapiens, UniProt P48736)
Chain of Phosphatidylinositol 4,5-bisphosphate 3-kinase catalytic subunit gamma isoform (P48736 whole entry, canonical isoform): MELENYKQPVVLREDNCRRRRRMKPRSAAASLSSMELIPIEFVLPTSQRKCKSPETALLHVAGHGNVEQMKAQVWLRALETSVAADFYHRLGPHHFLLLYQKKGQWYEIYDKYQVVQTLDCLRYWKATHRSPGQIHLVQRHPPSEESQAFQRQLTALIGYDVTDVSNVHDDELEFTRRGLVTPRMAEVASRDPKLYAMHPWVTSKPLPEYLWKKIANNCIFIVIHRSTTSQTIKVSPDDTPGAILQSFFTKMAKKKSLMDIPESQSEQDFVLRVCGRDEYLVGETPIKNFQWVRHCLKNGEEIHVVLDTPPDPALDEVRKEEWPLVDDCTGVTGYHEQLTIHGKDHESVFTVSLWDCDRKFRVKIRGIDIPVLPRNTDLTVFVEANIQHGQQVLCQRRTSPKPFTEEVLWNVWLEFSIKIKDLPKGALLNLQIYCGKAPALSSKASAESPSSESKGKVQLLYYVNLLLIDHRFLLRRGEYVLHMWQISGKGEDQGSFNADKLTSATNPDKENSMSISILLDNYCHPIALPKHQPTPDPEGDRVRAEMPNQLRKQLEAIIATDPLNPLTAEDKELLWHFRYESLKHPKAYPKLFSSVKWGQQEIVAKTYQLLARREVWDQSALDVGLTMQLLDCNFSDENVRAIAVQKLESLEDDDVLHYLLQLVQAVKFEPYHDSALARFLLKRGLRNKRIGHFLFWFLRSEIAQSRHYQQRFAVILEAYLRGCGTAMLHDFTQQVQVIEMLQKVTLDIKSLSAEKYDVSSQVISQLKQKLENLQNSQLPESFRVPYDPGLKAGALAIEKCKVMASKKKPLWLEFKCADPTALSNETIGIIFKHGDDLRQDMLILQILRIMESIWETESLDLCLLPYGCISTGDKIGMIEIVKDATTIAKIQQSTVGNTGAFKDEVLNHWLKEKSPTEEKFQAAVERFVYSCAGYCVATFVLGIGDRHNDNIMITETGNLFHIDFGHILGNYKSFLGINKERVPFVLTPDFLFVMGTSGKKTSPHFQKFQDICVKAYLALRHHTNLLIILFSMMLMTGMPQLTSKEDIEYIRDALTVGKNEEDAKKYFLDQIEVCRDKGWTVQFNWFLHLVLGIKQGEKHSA
Description: Inhibition of PI3Kgamma (unknown origin) using biotin-PIP3 as substrate preincubated for 15 mins followed by substrate addition and measured after 60 mins by fluorescence polarization assay

[5] = target: Phosphatidylinositol 4,5-bisphosphate 3-kinase catalytic subunit alpha isoform (Homo sapiens, UniProt P42336)
Chain of Phosphatidylinositol 4,5-bisphosphate 3-kinase catalytic subunit alpha isoform (P42336 whole entry, canonical isoform): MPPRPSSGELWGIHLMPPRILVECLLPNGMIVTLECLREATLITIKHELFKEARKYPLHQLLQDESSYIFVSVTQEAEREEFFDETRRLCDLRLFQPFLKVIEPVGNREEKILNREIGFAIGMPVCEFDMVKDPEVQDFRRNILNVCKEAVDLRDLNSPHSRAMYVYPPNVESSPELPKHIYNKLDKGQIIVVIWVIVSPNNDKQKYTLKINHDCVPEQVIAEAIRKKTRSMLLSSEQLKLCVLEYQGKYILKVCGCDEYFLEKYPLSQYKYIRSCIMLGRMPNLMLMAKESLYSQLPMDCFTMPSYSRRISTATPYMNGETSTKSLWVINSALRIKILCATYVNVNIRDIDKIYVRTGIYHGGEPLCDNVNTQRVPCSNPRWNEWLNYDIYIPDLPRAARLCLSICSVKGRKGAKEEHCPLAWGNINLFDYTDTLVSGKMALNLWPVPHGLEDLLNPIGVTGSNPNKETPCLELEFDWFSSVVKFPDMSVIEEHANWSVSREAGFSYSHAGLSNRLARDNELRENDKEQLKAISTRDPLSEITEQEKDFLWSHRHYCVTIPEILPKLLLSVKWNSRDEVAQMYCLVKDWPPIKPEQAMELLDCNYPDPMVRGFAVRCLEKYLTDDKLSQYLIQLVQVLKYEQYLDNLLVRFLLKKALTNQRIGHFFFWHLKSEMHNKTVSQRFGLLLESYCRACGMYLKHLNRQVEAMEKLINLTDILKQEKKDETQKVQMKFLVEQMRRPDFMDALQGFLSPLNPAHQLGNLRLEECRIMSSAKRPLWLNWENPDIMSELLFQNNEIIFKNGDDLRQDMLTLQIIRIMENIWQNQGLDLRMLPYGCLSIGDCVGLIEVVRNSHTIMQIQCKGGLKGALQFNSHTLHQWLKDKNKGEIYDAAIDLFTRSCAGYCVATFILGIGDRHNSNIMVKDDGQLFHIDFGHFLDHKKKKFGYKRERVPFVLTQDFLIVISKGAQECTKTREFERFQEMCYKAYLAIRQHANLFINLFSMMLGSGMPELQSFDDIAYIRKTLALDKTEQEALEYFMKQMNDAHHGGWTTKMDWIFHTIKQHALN
Description: Inhibition of PI3Kalpha (unknown origin) using biotin-PIP3 as substrate preincubated for 15 mins followed by substrate addition and measured after 60 mins by fluorescence polarization assay

Chain of Phosphatidylinositol 4,5-bisphosphate 3-kinase catalytic subunit beta isoform (P42338 whole entry, canonical isoform): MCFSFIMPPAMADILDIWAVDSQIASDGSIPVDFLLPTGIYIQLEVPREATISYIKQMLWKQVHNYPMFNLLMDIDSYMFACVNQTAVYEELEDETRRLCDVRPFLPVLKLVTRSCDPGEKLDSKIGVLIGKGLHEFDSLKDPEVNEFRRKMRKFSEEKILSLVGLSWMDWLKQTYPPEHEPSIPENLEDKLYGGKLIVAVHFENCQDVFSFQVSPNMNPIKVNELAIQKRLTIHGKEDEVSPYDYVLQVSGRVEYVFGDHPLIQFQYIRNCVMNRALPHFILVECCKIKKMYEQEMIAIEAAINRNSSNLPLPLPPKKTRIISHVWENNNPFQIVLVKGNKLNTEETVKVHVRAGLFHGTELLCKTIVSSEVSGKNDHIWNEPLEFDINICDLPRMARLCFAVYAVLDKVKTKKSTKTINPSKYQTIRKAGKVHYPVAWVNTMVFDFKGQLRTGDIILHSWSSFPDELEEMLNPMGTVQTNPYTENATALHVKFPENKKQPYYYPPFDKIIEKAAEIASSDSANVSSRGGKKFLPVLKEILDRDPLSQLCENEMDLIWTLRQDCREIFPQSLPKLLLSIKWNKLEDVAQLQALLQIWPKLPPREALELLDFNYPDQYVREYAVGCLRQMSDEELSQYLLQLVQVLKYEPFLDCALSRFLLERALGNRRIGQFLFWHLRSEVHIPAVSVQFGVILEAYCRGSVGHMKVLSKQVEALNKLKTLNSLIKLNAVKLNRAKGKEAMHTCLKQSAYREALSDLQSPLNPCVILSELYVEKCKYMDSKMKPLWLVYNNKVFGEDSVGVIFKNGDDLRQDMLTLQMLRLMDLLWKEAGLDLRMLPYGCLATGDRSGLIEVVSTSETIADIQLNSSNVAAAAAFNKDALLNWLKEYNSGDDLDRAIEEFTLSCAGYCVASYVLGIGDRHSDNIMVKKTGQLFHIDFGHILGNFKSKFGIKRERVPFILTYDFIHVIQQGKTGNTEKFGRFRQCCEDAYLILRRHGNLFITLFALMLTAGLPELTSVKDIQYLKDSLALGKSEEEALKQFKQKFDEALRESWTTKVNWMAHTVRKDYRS

IC50 [1] [nM] | logD [2] | IC50 [3] [nM] | IC50 [4] [nM] | IC50 [5] [nM] | Compound
398 | 2.8 | 6.31 | 39.8 | 39.8 | CC(=O)N(C)C1CCN(Cc2cc3nc(-c4cnc(N)nc4)nc(N4CCOCC4)c3s2)CC1
6310 | 3.2 | 200 | – | 631 | CC(=O)NC1CCN(Cc2cc3nc(-c4cccc5[nH]ncc45)nc(N4CCOCC4)c3s2)CC1
2000 | 1.8 | 158 | 126 | 126 | CC(=O)N[C@@H]1CCN(Cc2cc3nc(-c4cnc(N)nc4)nc(N4CCOCC4)c3s2)C1
5010 | 4.5 | 39.8 | 794 | 316 | CN(C1CCN(Cc2cc3nc(-c4cccc5[nH]ncc45)nc(N4CCOCC4)c3s2)CC1)S(C)(=O)=O
398 | 2.4 | 25.1 | 63.1 | 31.6 | CS(=O)(=O)NC1CCN(Cc2cc3nc(-c4cnc(N)nc4)nc(N4CCOCC4)c3s2)CC1
631 | 2.5 | 12.6 | 15.8 | 20 | CC(=O)N(C)[C@H]1CCN(Cc2cc3nc(-c4cnc(N)nc4)nc(N4CCOCC4)c3s2)C1
3160 | 3.1 | 100 | – | 251 | CNC(=O)NC1CCN(Cc2cc3nc(-c4cccc5[nH]ncc45)nc(N4CCOCC4)c3s2)CC1
794 | 2.3 | 39.8 | 63.1 | 50.1 | COCC(=O)NC1CCN(Cc2cc3nc(-c4cnc(N)nc4)nc(N4CCOCC4)c3s2)CC1
631 | 4.4 | 20 | 1000 | 1260 | CS(=O)(=O)NC1CCN(Cc2cc3nc(-c4cccc5[nH]ccc45)nc(N4CCOCC4)c3s2)CC1
2000 | 4.1 | 31.6 | 1000 | 501 | CC(=O)N(C)C1CCN(Cc2cc3nc(-c4cccc5[nH]ncc45)nc(N4CCOCC4)c3s2)CC1
398 | 2.5 | 7.94 | 25.1 | 31.6 | CC(=O)N(C)[C@@H]1CCN(Cc2cc3nc(-c4cnc(N)nc4)nc(N4CCOCC4)c3s2)C1
3980 | 3.9 | 126 | – | 398 | COCC(=O)NC1CCN(Cc2cc3nc(-c4cccc5[nH]ncc45)nc(N4CCOCC4)c3s2)CC1
1580 | 2.2 | 100 | 158 | 126 | CC(=O)NC1CCN(Cc2cc3nc(-c4cnc(N)nc4)nc(N4CCOCC4)c3s2)CC1
– | 4 | 79.4 | – | 3160 | CC(=O)NC1CCN(Cc2cc3nc(-c4cccc5[nH]ccc45)nc(N4CCOCC4)c3s2)CC1
1260 | 5.2 | 12.6 | 794 | 1580 | CN(C1CCN(Cc2cc3nc(-c4cccc5[nH]ccc45)nc(N4CCOCC4)c3s2)CC1)S(C)(=O)=O
631 | 1.9 | 39.8 | 63.1 | 25.1 | CNC(=O)NC1CCN(Cc2cc3nc(-c4cnc(N)nc4)nc(N4CCOCC4)c3s2)CC1
3980 | 1.8 | 316 | 251 | 200 | CC(=O)N[C@H]1CCN(Cc2cc3nc(-c4cnc(N)nc4)nc(N4CCOCC4)c3s2)C1
1580 | 3.8 | 25.1 | – | 501 | COCC(=O)N(C)C1CCN(Cc2cc3nc(-c4cccc5[nH]ncc45)nc(N4CCOCC4)c3s2)CC1
2510 | 3.6 | 158 | – | 3980 | CNC(=O)NC1CCN(Cc2cc3nc(-c4cccc5[nH]ccc45)nc(N4CCOCC4)c3s2)CC1

IC50 [1] [nM] | logD [2] | IC50 [3] [nM] | IC50 [4] [nM] | IC50 [5] [nM] | Compound
631 | 2.7 | 15.8 | 126 | 126 | COCC(=O)N(C)C1CCN(Cc2cc3nc(-c4cnc(N)nc4)nc(N4CCOCC4)c3s2)CC1
1260 | 3.8 | 39.8 | 794 | 126 | CS(=O)(=O)NC1CCN(Cc2cc3nc(-c4cccc5[nH]ncc45)nc(N4CCOCC4)c3s2)CC1
– | 4.3 | 79.4 | – | – | COCC(=O)NC1CCN(Cc2cc3nc(-c4cccc5[nH]ccc45)nc(N4CCOCC4)c3s2)CC1
3980 | 3 | 251 | 1260 | 501 | CC(=O)NC1CCN(Cc2cc3nc(-c4cccc5[nH]ncc45)nc(N4CCOCC4)c3s2)C1 (racemic)
6310 | 5 | 79.4 | 2000 | 2510 | COCC(=O)NC1CCCN(Cc2cc3nc(-c4cccc5[nH]ccc45)nc(N4CCOCC4)c3s2)C1 (racemic)
2000 | 2.5 | 79.4 | 158 | 126 | CC(=O)NC1CCCN(Cc2cc3nc(-c4cnc(N)nc4)nc(N4CCOCC4)c3s2)C1 (racemic)
1580 | – | 63.1 | 1580 | 794 | CNC(=O)N(C)C1CCN(Cc2cc3nc(-c4cccc5[nH]ncc45)nc(N4CCOCC4)c3s2)C1 (racemic)
1000 | 1.7 | 158 | 158 | 63.1 | CNC(=O)NC1CCN(Cc2cc3nc(-c4cnc(N)nc4)nc(N4CCOCC4)c3s2)C1 (racemic)
631 | 4.3 | 25.1 | 1580 | 1580 | CS(=O)(=O)NC1CCN(Cc2cc3nc(-c4cccc5[nH]ccc45)nc(N4CCOCC4)c3s2)C1 (racemic)
6310 | 4 | 79.4 | 1260 | 251 | CC(=O)NC1CCCN(Cc2cc3nc(-c4cccc5[nH]ncc45)nc(N4CCOCC4)c3s2)C1 (racemic)
501 | 1.9 | 79.4 | 79.4 | 31.6 | CC(=O)NC1CCN(Cc2cc3nc(-c4cnc(N)nc4)nc(N4CCOCC4)c3s2)C1 (racemic)
2000 | 3.4 | 126 | 3980 | 3160 | CNC(=O)NC1CCN(Cc2cc3nc(-c4cccc5[nH]ccc45)nc(N4CCOCC4)c3s2)C1 (racemic)
2510 | 2.9 | 200 | 1260 | 316 | CNC(=O)NC1CCN(Cc2cc3nc(-c4cccc5[nH]ncc45)nc(N4CCOCC4)c3s2)C1 (racemic)
1000 | 4.1 | 100 | 2510 | 1580 | COCC(=O)NC1CCN(Cc2cc3nc(-c4cccc5[nH]ccc45)nc(N4CCOCC4)c3s2)C1 (racemic)
2510 | 4.5 | 50.1 | 2510 | 3980 | CC(=O)NC1CCCN(Cc2cc3nc(-c4cccc5[nH]ccc45)nc(N4CCOCC4)c3s2)C1 (racemic)
501 | 2.3 | 79.4 | 50.1 | 39.8 | COCC(=O)NC1CCN(Cc2cc3nc(-c4cnc(N)nc4)nc(N4CCOCC4)c3s2)C1 (racemic)
3160 | 3.4 | 200 | 794 | 316 | COCC(=O)NC1CCN(Cc2cc3nc(-c4cccc5[nH]ncc45)nc(N4CCOCC4)c3s2)C1 (racemic)
3160 | 3.5 | 63.1 | 1260 | 251 | CS(=O)(=O)NC1CCN(Cc2cc3nc(-c4cccc5[nH]ncc45)nc(N4CCOCC4)c3s2)C1 (racemic)
1260 | 3.7 | 63.1 | 2000 | 3160 | CC(=O)NC1CCN(Cc2cc3nc(-c4cccc5[nH]ccc45)nc(N4CCOCC4)c3s2)C1 (racemic)
